This note sets out measurements from patent publication US20090036448A1, “PYRIMIDINE DERIVATIVES AND METHODS OF TREATMENT RELATED TO THE USE THEREOF” (TAISHO PHARMECUTICAL CO., LTD., priority 2004, published 2009).

The structures appear in SMILES notation.

The test has as its target MCH receptor (Homo sapiens, UniProt Q99705). In words: Receptor binding assay with Radiolabelled MCH Ligand. Details: expressed in transfected cells; host or cells: 293 cells (human kidney, ATCC), transient transfection; crude membranes. Conditions: class by percent of control at 10^-7 M or IC50. The method, boiled down:
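This was a filtration radioligand displacement assay: compounds, first tested at 1 and 0.1 μM and then over a range, inhibited binding of a labelled MCH ligand to transfected 293-cell membranes at room temperature for 60–120 min. Specific binding excluded a cold-MCH nonspecific signal. Ki was derived from IC50 via Cheng-Prusoff, using an independently measured KD.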

Chain of MCH receptor (Q99705 whole entry): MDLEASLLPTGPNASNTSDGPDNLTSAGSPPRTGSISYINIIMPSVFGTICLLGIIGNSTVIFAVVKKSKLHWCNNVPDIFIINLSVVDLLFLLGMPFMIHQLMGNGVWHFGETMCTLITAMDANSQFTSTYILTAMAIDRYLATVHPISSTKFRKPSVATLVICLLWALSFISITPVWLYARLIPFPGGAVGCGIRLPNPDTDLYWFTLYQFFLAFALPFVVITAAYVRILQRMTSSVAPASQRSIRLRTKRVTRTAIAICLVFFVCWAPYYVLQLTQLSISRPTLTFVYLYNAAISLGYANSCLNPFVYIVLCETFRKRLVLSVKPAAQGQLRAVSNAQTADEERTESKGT

Turning to `Cc1nc(N[C@H]2CC[C@@H](NCc3c(-c4c(F)cccc4Cl)noc3C)CC2)cc(N(C)C)n1` [compound 366], the class is 3 (Class 3: The value of percent of control at 10^−7 M was more than 60% or the value of IC50 was more than 200 nM.).
With `Cc1nc(N[C@H]2CC[C@@H](NC(=O)Cc3ccc(Cl)cc3)CC2)cc(N(C)C)n1` [compound 213], the class is listed as 3 (Class 3: The value of percent of control at 10^−7 M was more than 60% or the value of IC50 was more than 200 nM.).
`Cc1nc(N[C@H]2CC[C@@H](NC(=O)c3cccc([N+](=O)[O-])c3)CC2)cc(N(C)C)n1` [compound 232, N-(cis-4-{[6-(dimethylamino)-2-methylpyrimidin-4-yl]amino}cyclohexyl)-3-nitrobenzamide]: the class was 3 (Class 3: The value of percent of control at 10^−7 M was more than 60% or the value of IC50 was more than 200 nM.).
In the case of `Cc1nc(N[C@H]2CC[C@@H](NC(=O)C3(c4ccc(Cl)cc4)CCCC3)CC2)cc(N(C)C)n1` [compound 214], the class is on record as 1 (Class 1: The value of percent of control at 10^−7 M was less than 40% or the value of IC50 was less than 50 nM.).
Turning to `Cc1nc(N[C@H]2CC[C@@H](NC(=S)NCC(c3ccccc3)c3ccccc3)CC2)cc(N(C)C)n1` [compound 434], the class is on record as 3 (Class 3: The value of percent of control at 10^−7 M was more than 60% or the value of IC50 was more than 200 nM.).
As to `CCCCCCCCCc1ccc(C(=O)N[C@H]2CC[C@@H](Nc3cc(N(C)C)nc(C)n3)CC2)cc1` [compound 254], the class is given as 3 (Class 3: The value of percent of control at 10^−7 M was more than 60% or the value of IC50 was more than 200 nM.).
As for `Cc1nc(N[C@H]2CC[C@@H](NC(=O)c3ccccc3)CC2)cc(N(C)C)n1` [compound 200, N-(cis-4-{[6-(dimethylamino)-2-methylpyrimidin-4-yl]amino}cyclohexyl)benzamide], the class is 2 (Class 2: The value of percent of control at 10^−7 M was from 40% to 60% or the value of IC50 was from 50 nM to 200 nM.).
In the case of `CCCc1ccc(S(=O)(=O)N[C@H]2CC[C@@H](Nc3cc(N(C)C)nc(C)n3)CC2)cc1` [compound 487], the class is recorded as 3 (Class 3: The value of percent of control at 10^−7 M was more than 60% or the value of IC50 was more than 200 nM.).
Turning to `COc1ccc(C(=O)N[C@H]2CC[C@@H](Nc3cc(N(C)C)nc(C)n3)CC2)cc1OC` [compound 219], the class is on record as 3 (Class 3: The value of percent of control at 10^−7 M was more than 60% or the value of IC50 was more than 200 nM.).
`Cc1nc(N[C@H]2CC[C@@H](NC(=O)c3cc(C(C)(C)C)nn3Cc3ccccc3)CC2)cc(N(C)C)n1` [compound 267]: the class was 3 (Class 3: The value of percent of control at 10^−7 M was more than 60% or the value of IC50 was more than 200 nM.).
For the compound `CSc1sc(C(=O)N[C@H]2CC[C@@H](Nc3cc(N(C)C)nc(C)n3)CC2)c(Cl)c1S(=O)(=O)C(C)C` [compound 345], the class is given as 3 (Class 3: The value of percent of control at 10^−7 M was more than 60% or the value of IC50 was more than 200 nM.).
For `Cc1nc(N[C@H]2CC[C@@H](NC(=O)C3CCCCC3)CC2)cc(N(C)C)n1` [compound 212], the class is given as 3 (Class 3: The value of percent of control at 10^−7 M was more than 60% or the value of IC50 was more than 200 nM.).
For `CC(=O)c1ccc(C(=O)N[C@H]2CC[C@@H](Nc3cc(N(C)C)nc(C)n3)CC2)s1` [compound 344], the class is recorded as 3 (Class 3: The value of percent of control at 10^−7 M was more than 60% or the value of IC50 was more than 200 nM.).
In the case of `Cc1nc(N[C@H]2CC[C@@H](NC(=O)NC(C)c3cccc4ccccc34)CC2)cc(N(C)C)n1` (relative stereo) [compound 415, N-(cis-4-{[6-(dimethylamino)-2-methylpyrimidin-4-yl]amino}cyclohexyl)-N′-[1-(1-naphthyl)ethyl]urea], the class was 1 (Class 1: The value of percent of control at 10^−7 M was less than 40% or the value of IC50 was less than 50 nM.).
Consider `Cc1nc(N[C@H]2CC[C@@H](NC(=O)c3ccc4c(c3)OCO4)CC2)cc(N(C)C)n1` [compound 237], for which the class was 3 (Class 3: The value of percent of control at 10^−7 M was more than 60% or the value of IC50 was more than 200 nM.).
As for `Cc1nc(N[C@H]2CC[C@@H](NC(=O)Cc3ccc(Oc4ccccc4)cc3)CC2)cc(N(C)C)n1` [compound 300], the figure is 3 (Class 3: The value of percent of control at 10^−7 M was more than 60% or the value of IC50 was more than 200 nM.); as for `Cc1nc(N[C@H]2CC[C@@H](NCc3cccc4c3-c3ccccc3C4=O)CC2)cc(N(C)C)n1` [compound 392], 3 (Class 3: The value of percent of control at 10^−7 M was more than 60% or the value of IC50 was more than 200 nM.).
Regarding `Cc1nc(N[C@H]2CC[C@@H](NC(=O)/C=C/c3ccccc3Cl)CC2)cc(N(C)C)n1` [compound 265], the class is reported as 3 (Class 3: The value of percent of control at 10^−7 M was more than 60% or the value of IC50 was more than 200 nM.).
Regarding `Cc1nc(N[C@H]2CC[C@@H](NC(=O)COc3ccccc3[N+](=O)[O-])CC2)cc(N(C)C)n1` [compound 239], the class was 3 (Class 3: The value of percent of control at 10^−7 M was more than 60% or the value of IC50 was more than 200 nM.).
In the case of `Cc1nc(N[C@H]2CC[C@@H](NC(=S)Nc3ccc(N(C)C)c4ccccc34)CC2)cc(N(C)C)n1` [compound 440], the class is given as 3 (Class 3: The value of percent of control at 10^−7 M was more than 60% or the value of IC50 was more than 200 nM.).
As for `CCCCCCCc1ccc(-c2ccc(C(=O)N[C@H]3CC[C@@H](Nc4cc(N(C)C)nc(C)n4)CC3)cc2)cc1` [compound 334], the figure is 3 (Class 3: The value of percent of control at 10^−7 M was more than 60% or the value of IC50 was more than 200 nM.); as for `CCOc1ccc(C(=O)N[C@H]2CC[C@@H](Nc3cc(N(C)C)nc(C)n3)CC2)cc1` [compound 220], 3 (Class 3: The value of percent of control at 10^−7 M was more than 60% or the value of IC50 was more than 200 nM.); as for `COC(=O)[C@H](Cc1ccccc1)NC(=O)N[C@H]1CC[C@@H](Nc2cc(N(C)C)nc(C)n2)CC1` (relative stereo) [compound 411], 3 (Class 3: The value of percent of control at 10^−7 M was more than 60% or the value of IC50 was more than 200 nM.).
Turning to `Cc1nc(N[C@H]2CC[C@@H](NC(=O)COc3ccc(C(C)(C)C)cc3)CC2)cc(N(C)C)n1` [compound 255], the class is 3 (Class 3: The value of percent of control at 10^−7 M was more than 60% or the value of IC50 was more than 200 nM.).
For the compound `Cc1nc(N[C@H]2CC[C@@H](NC(=O)NCc3ccccc3Cl)CC2)cc(N(C)C)n1` [compound 412], the class is 3 (Class 3: The value of percent of control at 10^−7 M was more than 60% or the value of IC50 was more than 200 nM.).
`Cc1nc(N[C@H]2CC[C@@H](NC(=O)Nc3c(Cl)cc(Cl)cc3Cl)CC2)cc(N(C)C)n1` [compound 430]: the class is reported as 3 (Class 3: The value of percent of control at 10^−7 M was more than 60% or the value of IC50 was more than 200 nM.).
In the case of `Cc1nc(N[C@H]2CC[C@@H](NS(=O)(=O)c3c(C)noc3C)CC2)cc(N(C)C)n1` [compound 512] it was 3 (Class 3: The value of percent of control at 10^−7 M was more than 60% or the value of IC50 was more than 200 nM.); in that of `Cc1ccc(OC(=O)N[C@H]2CC[C@@H](Nc3cc(N(C)C)nc(C)n3)CC2)cc1` [compound 466], 3 (Class 3: The value of percent of control at 10^−7 M was more than 60% or the value of IC50 was more than 200 nM.).
In the case of `Cc1nc(N[C@H]2CC[C@@H](NC(=O)/C=C/c3ccccc3)CC2)cc(N(C)C)n1` [compound 210], the class is recorded as 3 (Class 3: The value of percent of control at 10^−7 M was more than 60% or the value of IC50 was more than 200 nM.).
In the case of `Cc1nc(N[C@H]2CC[C@@H](NCc3ccco3)CC2)cc(N(C)C)n1` [compound 373] it was 3 (Class 3: The value of percent of control at 10^−7 M was more than 60% or the value of IC50 was more than 200 nM.); in that of `Cc1nc(N[C@H]2CC[C@@H](NC(=O)c3ccccc3I)CC2)cc(N(C)C)n1` [compound 224], 3 (Class 3: The value of percent of control at 10^−7 M was more than 60% or the value of IC50 was more than 200 nM.).
Regarding `Cc1nc(N[C@H]2CC[C@@H](NCc3ccc(Cl)cc3)CC2)cc(N(C)C)n1` [compound 360], the class is 3 (Class 3: The value of percent of control at 10^−7 M was more than 60% or the value of IC50 was more than 200 nM.).
In the case of `Cc1nc(N[C@H]2CC[C@@H](NC(=O)c3ccc4ccccc4c3)CC2)cc(N(C)C)n1` [compound 231] it was 3 (Class 3: The value of percent of control at 10^−7 M was more than 60% or the value of IC50 was more than 200 nM.); in that of `CCOC(=O)c1c(S(=O)(=O)N[C@H]2CC[C@@H](Nc3cc(N(C)C)nc(C)n3)CC2)c(-c2ccc(Cl)cc2)n(-c2ccccc2)c1C` [compound 514], 3 (Class 3: The value of percent of control at 10^−7 M was more than 60% or the value of IC50 was more than 200 nM.); in that of `Cc1nc(N[C@H]2CC[C@@H](NS(=O)(=O)c3ccc(-c4ccon4)s3)CC2)cc(N(C)C)n1` [compound 517], 3 (Class 3: The value of percent of control at 10^−7 M was more than 60% or the value of IC50 was more than 200 nM.).
In the case of `Cc1nc(N[C@H]2CC[C@@H](NC(=O)Cc3sc(-c4ccccc4)nc3-c3ccc(Cl)cc3)CC2)cc(N(C)C)n1` [compound 335] it was 3 (Class 3: The value of percent of control at 10^−7 M was more than 60% or the value of IC50 was more than 200 nM.).
In the case of `Cc1nc(N[C@H]2CC[C@@H](NC(=O)COc3c(F)c(F)c(F)c(F)c3F)CC2)cc(N(C)C)n1` [compound 244] it was 3 (Class 3: The value of percent of control at 10^−7 M was more than 60% or the value of IC50 was more than 200 nM.).
